According to the NIST ThermoML archive (doi:10.1016/j.jct.2009.03.007):
± gives the expanded uncertainty stated by the source.

Key:
[1] = molar enthalpy of vaporization or sublimation; conditions: 298.15 K; Liquid; Calvet microcalorimetry
[2] = 298.15 K; Liquid; Calvet microcalorimetry

| molar enthalpy [1] [kcal/mol] | molar enthalpy of vaporization [2] [kcal/mol] | Compound |
| --- | --- | --- |
| 14.8 ± 0.621 |  | CCOC(=O)Cc1cccs1 [ethyl 2-thiopheneacetate] |
|  | 13.5 ± 0.621 | CCOC(=O)c1cccs1 [ethyl 2-thiophenecarboxylate] |
| 15.1 ± 0.621 |  | CCOC(=O)Cc1ccsc1 [ethyl 3-thiopheneacetate] |
|  | 13.8 ± 0.574 | COC(=O)c1cccs1 [methyl 2-thiophenecarboxylate] |
